Patent US10328114B2, “Lung injury repair compositions and methods” (University of Iowa Research Foundation, priority 2015, dated 2019)
“Also recorded” adds a separate entry of the source. Like-named read-outs stand apart in the source and are kept apart here. *: point of attachment. Myristoyl = CCCCCCCCCCCCCC(=O)*

Key:
PKCζ = biological target: T1, PKCζ (Mus musculus, UniProt Q02956); assay: PKCζ activation (p-PKCζ) in lungs, bleomycin induced ALI mouse model, Western blot and immunofluorescence; format: in vivo; conditions: for activation of PKC-ζ in vivo: lungs harvested at 1, 3 and 6 weeks, Western blot and immunofluorescence
T1 construct: from tissue; host or cells: lungs of C57BL/6 mice (lung homogenates and frozen lung sections)
T1 sequence (Q02956 1-592): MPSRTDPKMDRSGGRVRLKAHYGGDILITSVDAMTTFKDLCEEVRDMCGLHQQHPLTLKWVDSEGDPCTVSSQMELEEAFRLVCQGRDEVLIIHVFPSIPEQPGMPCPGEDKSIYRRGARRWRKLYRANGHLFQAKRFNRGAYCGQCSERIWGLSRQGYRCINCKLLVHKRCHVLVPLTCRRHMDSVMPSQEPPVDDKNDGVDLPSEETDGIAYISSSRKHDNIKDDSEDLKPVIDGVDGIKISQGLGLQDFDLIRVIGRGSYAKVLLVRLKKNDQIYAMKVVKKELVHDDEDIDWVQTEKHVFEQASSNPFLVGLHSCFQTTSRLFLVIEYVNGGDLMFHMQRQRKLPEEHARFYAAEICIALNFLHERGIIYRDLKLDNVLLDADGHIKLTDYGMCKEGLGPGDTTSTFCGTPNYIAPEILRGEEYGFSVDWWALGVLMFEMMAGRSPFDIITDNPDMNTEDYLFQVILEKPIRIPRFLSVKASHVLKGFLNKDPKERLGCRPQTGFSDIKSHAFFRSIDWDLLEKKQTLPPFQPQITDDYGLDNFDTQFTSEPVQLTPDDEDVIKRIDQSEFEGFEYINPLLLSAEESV
Protocol: Mice were randomly divided into four groups: (i) control: PBS plus DMSO (1 μl/mouse) (ii) PKC-ζ pseudosubstrate inhibitor (PKC-ζ ps) (1 μg/mouse suspended in DMSO), a pharmacological inhibitor that competes for the pseudosubstrate domain which give specificity to several PKCζ isoforms (Hofmann, J. (1997). “The potential for isoenzyme-selective modulation of protein kinase C.” FASEB J 11(8): 649-669); (iii) bleomycin: bleomycin suspended in PBS (4 U/kg); and (iv) Bleomycin+PKCζi: bleomycin (4 U/kg) plus (1 μg/mouse) PKCζi. The above conditions were administered intratracheally (50 μL) to 6-8 wk-old mice after 2-5 min of anesthesia with 4% isoflurane via a precision Fortec vaporizer (Cyprane, Keighley, UK). Treatment with DMSO or PKCζi was administered every 72 hours and followed for up to 6 weeks. At 1, 3, and 6 weeks mice were euthanized and lungs harvested.
(§1) Animal protocols were approved by the Institutional Animal Care and Use Committee at the University of Iowa. C57BL/6 mice (Jackson Laboratories, Bar Harbor, Me.) were anesthetized followed by intratracheal instillation of: (A) Control (Ctrl): 1 μl of DMSO (Sigma, St. Louis, Mo.) plus 49 μl of PBS; (B) Bleomycin (Bleo): 1 μl of DMSO plus 49 μl of bleomycin (APP pharmaceuticals, LLC Schaumburg, Ill.) dissolved in PBS (4 U/kg); (C) Bleomycin/PKCζi (Bleo/PKCζi): 1 μg of PKCζi (Calbiochem EMD Biosciences, San Diego, Calif.) solubilized in 1 μl of DMSO plus 49 μl of bleomycin (4 U/Kg) dissolved in PBS (Calbiochem EMD Biosciences, San Diego, Calif.). After this treatment, all mice were instilled (50 μl) every 72 hours with 1 μl of DMSO plus 49 μl of PBS in the Ctrl and Bleo group or with 1 μg of PKCζi dissolved in 1 μl of DMSO plus 49 μl of PBS in the Bleo/PKCζi group for the duration of the experiment. Mice were treated for up to 6 weeks (FIG. 1A). All conditions had between 4 to 6 animals.
Western blot analysis was performed using Phospho-(Ser) PKCζ substrate rabbit monoclonal antibody (Cell Signaling, Beverly, Mass.), total PKCζ rabbit polyclonal antibody (Santa Cruz Biotechnology, Dallas, Tex.) and mature surfactant protein C (SPC) rabbit polyclonal antibody (Seven Hill Bioreagents, Cincinnati, Ohio).
After dissection, immunofluorescence labeling was performed on frozen mouse lung tissue sections with polyclonal anti p-PKCζ (Santa Cruz Biotechnology, Dallas, Tex.) or monoclonal β4 antibody (Clone 346-11a, BD Biosciences, San Jose, Calif.) (23). In addition, Terminal deoxynucleotidyltransferase dUTP nick end labeling (TUNEL) staining was performed on week 1 mouse lung tissue sections (24).

mouse DLEP α6β4^+ cells = assay: Isolated DLEP α6β4+ cell colony assay (Example 3); format: cell-based; conditions: PKCζi 10 μM, 2 weeks, 20% BALF from week 1 bleomycin injured mice
Protocol: Isolated mouse DLEP α6β4^+ cells in the presence of 20% of BALF from week 1 mice injured with bleomycin were treated with PKCζi (10 μM) for 2 weeks. At week 3 the colonies derived from cre-GFP (lox-tm-TR/GFP) for surfactant protein C (SPC)/Tomato red with hydroxy-tamoxifen were exposed in order to trace the differentiation of β4^+ colonies into SPC^+ cells.

[1] = system: BALF isolated cells from bleomycin treated mice; assay: ROS production (extracellular H2O2) of BALF cells, p-hydroxyphenylacetate method; format: in vivo, mouse; conditions: week 1 post initial instillation
Protocol: as §1
BALF cells from week 1 post initial instillation were determined by the p-hydroxyphenylacetate method as reported previously (25).

[2] = system: isolated rat primary alveolar epithelial cells; conditions: hypoxia and diesel exhaust particle in vitro lung injury models, cited from earlier work
[3] = system: surfactant protein C (SPC); assay: Surfactant protein C (SPC) by Western blot in bleomycin ALI model; format: in vivo, mouse
Protocol: (4) PKC-ζi partially preserves lung compliance. Briefly, trachea was surgically exposed and tracheal cannula (18 gauge, Angiocath, Becton Dickinson, Sandy, Utah, USA) placed and secure in the lumen. The mice were paralyzed using intraperitoneal rocuronium (1 mg/Kg) to prevent spontaneous breathing and mechanically ventilated on a computer controlled respirator (flexiVent, SCIREQ Inc., Montreal, Canada). The ventilator was set up to deliver tidal volume 6 ml/kg for 10 minutes; respiratory rate of 150 breaths/min; 3 cmH2O positive end expiratory pressure (PEEP). The compliance was determined using the maneuver Pressure-volume ramp volume regulated (PVrV) to calculate the Quasi-static compliance. […] Since lung compliance is the product of an intact epithelial barrier and surfactant production, and PKCζ have been reported to be involved in surfactant production (Gobran et al., (1998). “PKCζ isoforms and other signaling proteins involved in surfactant secretion in developing rat type II cells.” Am J Physiol 274(6 Pt 1): L901-907), the inventors decided to examine by Western blot analysis total amount of SPC in BALF. […] Therefore, our results are likely due to preservation of the alveolar epithelial barrier.
Animal protocols were approved by the Institutional Animal Care and Use Committee at the University of Iowa. […]

[4] = system: active transforming growth factor beta (TGFβ); assay: Active TGFβ ELISA in bleomycin ALI model; format: in vivo, mouse
Protocol: as §1
Mouse IL-1β and active transforming growth factor beta (TGFβ) were measured using an ELISA from R&D Biosystems (Minneapolis, Minn.).

N-Myristoyl-Ser-Ile-Tyr-Arg-Arg-Gly-Ala-Arg-Arg-Trp-Arg-Lys-Leu-OH (Myristoyl-SIYRRGARRWRKL-OH; SMILES CCCCCCCCCCCCCC(=O)N[C@@H](CO)C(=O)N[C@H](C(=O)N[C@@H](Cc1ccc(O)cc1)C(=O)N[C@@H](CCCNC(=N)N)C(=O)N[C@@H](CCCNC(=N)N)C(=O)NCC(=O)N[C@@H](C)C(=O)N[C@@H](CCCNC(=N)N)C(=O)N[C@@H](CCCNC(=N)N)C(=O)N[C@@H](Cc1c[nH]c2ccccc12)C(=O)N[C@@H](CCCNC(=N)N)C(=O)N[C@@H](CCCCN)C(=O)N[C@@H](CC(C)C)C(=O)O)[C@@H](C)CC) [PKCζi]
activation of PKC-ζ in vivo (PKCζ): prevents activation of PKCζ in vivo
activation of PKC-ζ in vivo (PKCζ; listed as PKC-ζi): prevented the activation of PKC-ζ
p-PKCζ / total PKCζ, Western blot densitometry of lung homogenates (PKCζ; week 1, PKCζi 1 μg intratracheal every 72 hours, vs Bleo group): prevented bleomycin induced increased ratio p-PKC/total PKCζ; also recorded: decreased p-PKCζ at week 1 compared to Bleo group
p-PKCζ immunostaining intensity in lung (PKCζ; week 3 and 6, vs bleomycin group): did not have any increase in p-PKCζ at week 3; also recorded: decreased intensity in the Bleo/PKCζi group compared to bleomycin group at week 3 and 6
number of α6β4+ colonies (mouse DLEP α6β4^+ cells): increased the number of α6β4^+ colonies compared to control; also recorded: promotes proliferation DLEP α6β4^+ cells in vitro
ROS production / extracellular hydrogen peroxide (H2O2) of BALF cells [1]: does not reduce extracellular hydrogen peroxide (H2O2) in BALF isolated cells from bleomycin treated mice lung
ROS production / extracellular hydrogen peroxide (H2O2) of BALF cells ([1]; listed as PKC-ζi): did not prevent ROS production in bleomycin treated mice
alveolar epithelial barrier integrity [2]: prevents the disruption of the epithelial barrier in isolated rat primary alveolar epithelial cells
alveolar epithelial barrier integrity ([2]; listed as PKC-ζ inhibitor): preserves the alveolar epithelial barrier
total amount of SPC in BALF (Western blot) ([3]; Example 1): did not prevent a reduction in SPC
total SPC in whole lungs (Western blot) ([3]; week 1, Example 2): did not prevent the reduction in SPC caused by bleomycin injury; also recorded: does not prevent total SPC decrease in the lungs
active TGF β ([4]; week 3 post injury): no difference in active TGF β and hydroxyproline concentrations compared to bleomycin group; also recorded: does not prevent bleomycin induced TGF β activation
active TGF β ([4]; week 3 post injury, listed as PKC-ζi): significantly elevated in both groups
active TGF β ([4]; week 6): prevents bleomycin induced active TGF β at week 6
